Converted amounts (≈) assume the structure as drawn.
How the values were obtained:
Rhizoctonia solani = details: 10 ppm; 3–7 days of incubation
Method: After 3–7 days of incubation, inhibition of mycelial growth is recorded using the following scale: The data obtained are shown in Table VI.

[1] = test system: Pyricularia grisea sp. oryzae; format: in vivo; details: Rice Blast; plants sprayed with 200 ppm test solution, inoculated the same day
Venturia inaequalis = experiment: Evaluation of in vivo fungicidal activity, Apple Scab (AS); details: plants sprayed with 200 ppm test solution, inoculated the same day
Pyricularia Oryzae = format: cell-based; details: lowest concentration causing total inhibition of mycelial growth; 6–12 days incubation at 18 to 25° C.; visual inspection
[2] = Evaluation of in vivo fungicidal activity, Grape downy mildew (GDM); set-up: species or system Uniclnula necator; details: plants sprayed with 200 ppm test solution, inoculated the same day

Row | SMILES | Rhizoctonia solani (Rice sheath blight) inhibition of mycelial growth rating (Rhizoctonia solani) | RB disease control rating [1] | AS disease control rating (Venturia inaequalis) | MIC (Pyricularia Oryzae) | GDM disease control rating [2]
1 | CC(Nc1nc(N(C)C#N)nc(Cl)c1-c1c(F)cc(F)cc1F)C(F)(F)F (centres unmarked) [Example 1, 2-(N-cyano-N-methylamino)-4-chloro-5-(2,4,6-trifluorophenul)-6-(1,1,1-trifluoroprop-2-ylamino)-pyrimidine] | 7 | – | – | – | –
2 | CN(C#N)c1nc(Cl)c(-c2c(F)ccc(F)c2F)c(NC2CCCC2)n1 [Example 4] | 7 | 3 (30–44) | 5 (60–74) | >100 µg/mL | 3 (30–44)
3 | CC1CCN(c2nc(N(C)C#N)nc(Cl)c2-c2c(F)cccc2Cl)CC1 [Example 5] | 0 | 4 (45–59) | 9 (100) | 25 µg/mL (≈ 63.4 µM) | 0 (0)
4 | CC(C)Nc1nc(N(C)C#N)nc(Cl)c1-c1c(F)cc(F)cc1F [Example 3] | – | 5 (60–74) | 7 (90–95) | 3.13 µg/mL (≈ 8.8 µM) | 7 (90–95)
5 | CCC(C)Nc1nc(N(C)C#N)nc(Cl)c1-c1c(F)cccc1Cl (centres unmarked) [Example 6] | 0 | 6 (75–89) | 9 (100) | 6.25 µg/mL (≈ 17 µM) | 3 (30–44)
6 | CCCCN(C#N)c1nc(Cl)c(-c2c(F)cc(F)cc2F)c(NC(C)C(F)(F)F)n1 (centres unmarked) [Example 2] | – | 0 (0) | 0 (0) | – | 0 (0)
7 | CC(N(C)c1nc(N(C)C#N)nc(Cl)c1-c1c(F)cc(F)cc1F)C(F)(F)F (centres unmarked) [Example 8] | 7 | – | – | – | –
8 | CC1CCN(c2nc(N(C)C#N)nc(Cl)c2-c2c(F)cc(F)cc2F)CC1 [Example 7] | 0 | – | – | 100 µg/mL (≈ 253 µM) | –

Reference: patent US7230104B2, “Fungicidal 5-phenyl substituted 2-(cyanoamino) pyrimidines” (priority 2000, dated 2007)
